# From patent US20250171437A1 (Agios Pharmaceuticals,Inc., priority 2022, published 2025)
# Target: T1, human PAH with the R408W mutation (A375 R408W cells) (Homo sapiens, UniProt P00439, R408W)
# T1 construct: expressed in transfected cells
# T1 sequence (P00439 1-452 R408W): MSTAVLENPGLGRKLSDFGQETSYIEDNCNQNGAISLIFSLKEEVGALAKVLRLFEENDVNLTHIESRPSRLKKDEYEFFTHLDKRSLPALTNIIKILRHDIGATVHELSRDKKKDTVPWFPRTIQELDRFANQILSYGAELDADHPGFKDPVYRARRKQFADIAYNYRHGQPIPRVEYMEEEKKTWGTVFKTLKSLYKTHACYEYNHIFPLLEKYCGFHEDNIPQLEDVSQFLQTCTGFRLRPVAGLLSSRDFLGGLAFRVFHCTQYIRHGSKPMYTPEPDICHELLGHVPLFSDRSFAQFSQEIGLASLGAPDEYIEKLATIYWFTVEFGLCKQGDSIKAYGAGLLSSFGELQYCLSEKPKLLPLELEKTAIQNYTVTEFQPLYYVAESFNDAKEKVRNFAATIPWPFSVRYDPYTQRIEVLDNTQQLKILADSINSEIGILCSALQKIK
# Experiment: Cell Based Phenylalanine Flux Assay
# Details: 24 hrs with compound, then 20 μM sepiapterin and 800 μM 13C9,15N-Phenylalanine for 4 hours, 13C-Tyrosine by LC-MS, average where tested multiple times
# Experimental: Cells expressing R408W PAH were made by transducing A375 cells with lentivirus encoding human PAH with the R408W mutation in pLVX-Puro, then selecting with puromycin until stable cell lines were generated. A375 R408W cells were seeded into 96 well plates in DMEM+10% FBS at a density of 40,000 cells/well one hour prior to compound addition. Compounds were resuspended in DMSO, and 2-fold serial dilutions were performed to generate a 10-point dose curve. Compounds were added to plated cells in a total volume of 100 μl, and a final DMSO concentration of 0.5%. Each compound was tested in duplicate. Following compound addition, cells were placed in a 5% CO2, 37° C. tissue culture incubator for 24 hrs. After the incubation period, 20 μM sepiapterin and 800 μM 13C9,15N-Phenylalanine were added. After 4 hours, cell media was removed. An aliquot of 10 μl of cell media was combined with 200 μl of extraction buffer (80% acetonitrile/20% H2O) for each well. Determination of ^13C-Tyrosine concentration was assessed by liquid chromatography mass spectrometry.
# Specific compounds disclosed herein were tested in the foregoing assay and they were determined to have an AC50 according to the following scores: (A) less than or equal to 0.500 μM, (B) greater than 0.500 and less than […], (C) greater than or equal to 1.000 and less than 5.000 μM, (D) greater than or equal to 5.000 μM, (E) no fit, and (NT) not tested, as shown below. Where a compound was tested multiple times, the average value of the tests is reported.
# [1] = A375 cells expressing R408W PAH
Structure (SMILES),AC50 (A375 R408W cells),AC50 [1]
"Cn1ccc(-c2nnc(C(=O)N3CCc4[nH]cnc4[C@H]3c3nc4ccccc4o3)o2)n1 [Example 843, (S)-(4-(benzo[d]oxazol-2-yl)-6,7-dihydro-1H-imidazo[4,5-c]pyridin-5(4H)-yl)(5-(1-methyl-1H-pyrazol-3-yl)-1,3,4-oxadiazol-2-yl)methanone]",≤ 500 nM,
O=C(c1nnc(-c2cnn(S(=O)(=O)C3CC3)c2)o1)N1CCc2[nH]cnc2C1c1nc2cc(F)ccc2o1 (centres unmarked),,1000 to 5000 nM
COCc1ccc2c(C(=O)N3CCc4[nH]cnc4C3c3nc4ccc(C)cc4o3)cnn2c1 (centres unmarked),,≥ 5000 nM
"O=C(c1cnco1)N1CCc2[nH]cnc2[C@@H]1c1nc2c(F)ccc(F)c2o1 [Example 484, (R)-(4-(4,7-difluorobenzo[d]oxazol-2-yl)-6,7-dihydro-1H-imidazo[4,5-c]pyridin-5(4H)-yl)(oxazol-5-yl)methanone]",1000 to 5000 nM,
Cc1ccc2oc(C3c4nc[nH]c4CCN3C(=O)c3cnn4cc(CN(C)C)ccc34)nc2c1 (centres unmarked),,1000 to 5000 nM
O=C(c1cnn2cc(N3CCC4(CC3)CC4)ccc12)N1CCc2[nH]cnc2C1c1nc2cc(F)ccc2o1 (centres unmarked),,1000 to 5000 nM
O=C(c1cnn2cc(N3CCC(O)CC3)ccc12)N1CCc2[nH]cnc2C1c1nc2c(F)c(F)ccc2o1 (centres unmarked),,≥ 5000 nM
"O=C(c1oc(-c2cncnc2)nc1C(F)F)N1CCc2[nH]cnc2[C@H]1c1nc2cccc(F)c2o1 [Example 742, (S)-(4-(difluoromethyl)-2-(pyrimidin-5-yl)oxazol-5-yl)(4-(7-fluorobenzo[d]oxazol-2-yl)-6,7-dihydro-1H-imidazo[4,5-c]pyridin-5(4H)-yl)methanone]",≤ 500 nM,
"O=C(c1ocnc1C(F)(F)F)N1CCc2[nH]cnc2[C@@H]1c1nc2cccc(F)c2o1 [Example 172, (R)-(4-(7-fluorobenzo[d]oxazol-2-yl)-6,7-dihydro-1H-imidazo[4,5-c]pyridin-5(4H)-yl)(4-(trifluoromethyl)oxazol-5-yl)methanone]",≤ 500 nM,
"O=C(c1oc(-c2ncccn2)nc1C(F)F)N1CCc2[nH]cnc2[C@H]1c1nc2cc(F)ccc2o1 [Example 661, (S)-(4-(difluoromethyl)-2-(pyrimidin-2-yl)oxazol-5-yl)(4-(5-fluorobenzo[d]oxazol-2-yl)-6,7-dihydro-1H-imidazo[4,5-c]pyridin-5(4H)-yl)methanone]",1000 to 5000 nM,
O=C(c1cn(-c2ccccn2)nc1Cl)N1CCc2[nH]cnc2C1c1nc2cc(F)ccc2o1 (centres unmarked),,1000 to 5000 nM
"O=C(c1oc(-c2cncnc2)nc1C(F)F)N1CCc2[nH]cnc2[C@@H]1c1nc2cccc(F)c2o1 [Example 741, (R)-(4-(difluoromethyl)-2-(pyrimidin-5-yl)oxazol-5-yl)(4-(7-fluorobenzo[d]oxazol-2-yl)-6,7-dihydro-1H-imidazo[4,5-c]pyridin-5(4H)-yl)methanone]",≤ 500 nM,
COCc1nnc(C(=O)N2CCc3[nH]cnc3C2c2nc3cc(F)ccc3o2)o1 (centres unmarked),,1000 to 5000 nM
"CC(C)(O)c1nc(Cl)c(C(=O)N2CCc3[nH]cnc3[C@@H]2c2nc3cccc(F)c3o2)o1 [Example 271, (R)-(4-chloro-2-(2-hydroxypropan-2-yl)oxazol-5-yl)(4-(7-fluorobenzo[d]oxazol-2-yl)-6,7-dihydro-1H-imidazo[4,5-c]pyridin-5(4H)-yl)methanone]",1000 to 5000 nM,
CN(C)Cc1ccc2c(C(=O)N3CCc4[nH]cnc4C3c3nc4cc(F)ccc4o3)cnn2c1 (centres unmarked),,≥ 5000 nM
COCCOc1ccc2c(C(=O)N3CCc4[nH]cnc4C3c3nc4cc(F)ccc4o3)cnn2c1 (centres unmarked),,1000 to 5000 nM
"CC(C)(O)c1nc(Cl)c(C(=O)N2CCc3[nH]cnc3[C@@H]2c2nc3cc(F)ccc3o2)o1 [Example 130, (R)-(4-chloro-2-(2-hydroxypropan-2-yl)oxazol-5-yl)(4-(5-fluorobenzo[d]oxazol-2-yl)-6,7-dihydro-1H-imidazo[4,5-c]pyridin-5(4H)-yl)methanone]",≥ 5000 nM,
